The values below come from ChEMBL document CHEMBL5465560, “Selectivity Literature for EUbOPEN Chemogenomic Library” (2024).

Assay [1] deals with T1, Mitogen-activated protein kinase kinase kinase kinase 3 (Homo sapiens) (UniProt Q8IVH8).
T1 sequence (whole entry): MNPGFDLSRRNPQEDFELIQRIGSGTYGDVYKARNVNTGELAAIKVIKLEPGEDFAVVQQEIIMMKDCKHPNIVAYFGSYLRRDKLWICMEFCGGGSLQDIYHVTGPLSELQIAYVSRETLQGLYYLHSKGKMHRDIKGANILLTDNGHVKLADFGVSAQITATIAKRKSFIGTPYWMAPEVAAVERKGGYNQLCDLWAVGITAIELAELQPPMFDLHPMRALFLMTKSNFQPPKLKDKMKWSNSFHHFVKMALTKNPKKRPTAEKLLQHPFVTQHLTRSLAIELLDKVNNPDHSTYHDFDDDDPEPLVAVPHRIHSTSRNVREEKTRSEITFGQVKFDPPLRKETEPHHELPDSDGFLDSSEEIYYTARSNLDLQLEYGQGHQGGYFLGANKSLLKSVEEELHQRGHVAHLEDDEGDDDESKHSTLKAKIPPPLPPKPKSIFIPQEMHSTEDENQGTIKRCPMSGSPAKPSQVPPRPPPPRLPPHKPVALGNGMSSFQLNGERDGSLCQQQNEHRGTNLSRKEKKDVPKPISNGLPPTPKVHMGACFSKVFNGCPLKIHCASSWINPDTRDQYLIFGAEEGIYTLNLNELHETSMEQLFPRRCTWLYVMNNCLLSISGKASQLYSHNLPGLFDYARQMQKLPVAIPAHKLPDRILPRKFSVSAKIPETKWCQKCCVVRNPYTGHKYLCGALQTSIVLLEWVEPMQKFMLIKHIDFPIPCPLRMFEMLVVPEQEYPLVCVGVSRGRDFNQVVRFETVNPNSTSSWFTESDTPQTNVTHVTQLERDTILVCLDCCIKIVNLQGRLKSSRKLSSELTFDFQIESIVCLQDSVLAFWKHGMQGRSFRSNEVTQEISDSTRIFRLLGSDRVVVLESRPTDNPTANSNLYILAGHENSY
Briefly: Selectivity interaction (Ambit KINOMEscan and KiNATiv profiling in Jurkat cells) EUB0000090b MAP4K3. The format is cell-based. Conditions: at 1 µM.

Assay [2] concerns the target Serine/threonine-protein kinase MRCK alpha (Homo sapiens) (UniProt Q5VT25). Briefly: Selectivity interaction (Ambit KINOMEscan) EUB0000092b CDC42BPA. Conditions: at 10 µM.
Assay [3] has as its target T2, Protein arginine N-methyltransferase 9 (Homo sapiens) (UniProt Q6P2P2).
T2 sequence (whole entry): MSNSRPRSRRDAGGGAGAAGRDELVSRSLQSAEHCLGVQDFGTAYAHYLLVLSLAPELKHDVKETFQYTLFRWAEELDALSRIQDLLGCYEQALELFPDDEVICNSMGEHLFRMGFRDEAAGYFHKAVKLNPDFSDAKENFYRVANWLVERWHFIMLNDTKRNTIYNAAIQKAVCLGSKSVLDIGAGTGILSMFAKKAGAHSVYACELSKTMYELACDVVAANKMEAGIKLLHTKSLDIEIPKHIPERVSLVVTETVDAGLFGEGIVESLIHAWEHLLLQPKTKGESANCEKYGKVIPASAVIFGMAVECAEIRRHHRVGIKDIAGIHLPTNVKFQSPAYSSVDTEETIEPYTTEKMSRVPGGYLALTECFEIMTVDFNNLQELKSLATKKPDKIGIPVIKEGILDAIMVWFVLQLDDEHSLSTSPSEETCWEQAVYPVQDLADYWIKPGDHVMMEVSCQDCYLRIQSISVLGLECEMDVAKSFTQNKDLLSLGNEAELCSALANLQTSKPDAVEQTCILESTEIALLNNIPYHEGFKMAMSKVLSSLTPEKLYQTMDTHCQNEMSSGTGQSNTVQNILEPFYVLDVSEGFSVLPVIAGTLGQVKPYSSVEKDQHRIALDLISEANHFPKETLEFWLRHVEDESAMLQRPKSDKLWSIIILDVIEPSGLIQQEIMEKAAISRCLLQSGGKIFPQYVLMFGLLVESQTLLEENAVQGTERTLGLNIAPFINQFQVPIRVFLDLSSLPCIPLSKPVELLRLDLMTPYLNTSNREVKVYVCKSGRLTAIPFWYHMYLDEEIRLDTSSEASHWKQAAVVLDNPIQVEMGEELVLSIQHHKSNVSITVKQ
To be noted: at 10 µM.

Assay [4] concerns the target T3, Serine/threonine-protein kinase greatwall (Homo sapiens) (UniProt Q96GX5).
T3 sequence (whole entry): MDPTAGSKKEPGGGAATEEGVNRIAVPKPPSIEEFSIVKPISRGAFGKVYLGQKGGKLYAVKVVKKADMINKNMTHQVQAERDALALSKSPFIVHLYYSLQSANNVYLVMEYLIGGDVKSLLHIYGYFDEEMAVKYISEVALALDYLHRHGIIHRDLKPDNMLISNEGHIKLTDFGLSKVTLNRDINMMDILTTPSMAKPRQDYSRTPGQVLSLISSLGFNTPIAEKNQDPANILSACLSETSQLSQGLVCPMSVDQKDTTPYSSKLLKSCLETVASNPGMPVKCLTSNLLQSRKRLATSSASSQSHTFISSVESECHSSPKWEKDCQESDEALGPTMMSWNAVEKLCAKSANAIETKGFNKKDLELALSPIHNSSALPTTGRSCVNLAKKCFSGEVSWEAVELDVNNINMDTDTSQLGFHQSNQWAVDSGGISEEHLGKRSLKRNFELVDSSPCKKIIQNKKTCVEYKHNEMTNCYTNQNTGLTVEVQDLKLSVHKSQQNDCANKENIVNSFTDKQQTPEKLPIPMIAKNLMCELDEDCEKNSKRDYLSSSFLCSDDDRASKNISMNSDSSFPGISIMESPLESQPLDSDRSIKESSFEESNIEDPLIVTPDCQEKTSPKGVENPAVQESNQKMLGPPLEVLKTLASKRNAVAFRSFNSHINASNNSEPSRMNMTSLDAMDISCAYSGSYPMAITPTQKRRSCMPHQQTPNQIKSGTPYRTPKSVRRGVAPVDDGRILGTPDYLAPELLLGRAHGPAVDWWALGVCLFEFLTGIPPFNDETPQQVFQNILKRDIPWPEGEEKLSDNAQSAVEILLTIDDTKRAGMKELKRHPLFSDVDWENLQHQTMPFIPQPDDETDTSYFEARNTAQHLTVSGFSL
Briefly: Selectivity interaction (ActivX KiNativ screen (kinase selectivity in THP-1 cell lysates)) EUB0000639a MASTL. Type of assay: subcellular. To be noted: lysate, at 0.04 µM.

The target in assay [5] is Cyclin-dependent kinase 16 (Homo sapiens) (UniProt Q00536). As to the kind of experiment: Selectivity interaction (KinomeScan (DiscoverX)) EUB0000229b CDK16. To be noted: at 10 µM.
Chain of Cyclin-dependent kinase 16 (Homo sapiens) (Q00536 whole entry): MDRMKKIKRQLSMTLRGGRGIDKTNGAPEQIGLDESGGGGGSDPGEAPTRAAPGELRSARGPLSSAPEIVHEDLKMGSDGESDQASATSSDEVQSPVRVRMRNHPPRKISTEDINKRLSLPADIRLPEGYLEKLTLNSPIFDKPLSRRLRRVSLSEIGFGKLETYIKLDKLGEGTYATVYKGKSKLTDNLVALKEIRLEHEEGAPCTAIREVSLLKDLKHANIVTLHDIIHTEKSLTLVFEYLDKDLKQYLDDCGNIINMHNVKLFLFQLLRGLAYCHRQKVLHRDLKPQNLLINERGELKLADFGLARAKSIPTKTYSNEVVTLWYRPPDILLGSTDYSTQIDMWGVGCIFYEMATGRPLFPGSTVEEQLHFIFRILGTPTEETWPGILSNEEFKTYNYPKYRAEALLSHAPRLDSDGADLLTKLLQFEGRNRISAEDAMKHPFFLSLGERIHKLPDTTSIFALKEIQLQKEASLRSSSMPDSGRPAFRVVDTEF
Assay [6] concerns the target Hepatocyte growth factor receptor (Homo sapiens, UniProt P08581). As to the kind of experiment: Selectivity interaction (Kinase panel (33PanQinase(R) Activity Assay)) EUB0000877a MET.
For assay [7], the target named is Calcium/calmodulin-dependent protein kinase type II subunit beta (Homo sapiens) (UniProt Q13554). Briefly: Selectivity interaction (KinomeScan (DiscoverX)) EUB0000618a CAMK2B. Conditions: at 10 µM.
Chain of Calcium/calmodulin-dependent protein kinase type II subunit beta (Homo sapiens) (Q13554 whole entry): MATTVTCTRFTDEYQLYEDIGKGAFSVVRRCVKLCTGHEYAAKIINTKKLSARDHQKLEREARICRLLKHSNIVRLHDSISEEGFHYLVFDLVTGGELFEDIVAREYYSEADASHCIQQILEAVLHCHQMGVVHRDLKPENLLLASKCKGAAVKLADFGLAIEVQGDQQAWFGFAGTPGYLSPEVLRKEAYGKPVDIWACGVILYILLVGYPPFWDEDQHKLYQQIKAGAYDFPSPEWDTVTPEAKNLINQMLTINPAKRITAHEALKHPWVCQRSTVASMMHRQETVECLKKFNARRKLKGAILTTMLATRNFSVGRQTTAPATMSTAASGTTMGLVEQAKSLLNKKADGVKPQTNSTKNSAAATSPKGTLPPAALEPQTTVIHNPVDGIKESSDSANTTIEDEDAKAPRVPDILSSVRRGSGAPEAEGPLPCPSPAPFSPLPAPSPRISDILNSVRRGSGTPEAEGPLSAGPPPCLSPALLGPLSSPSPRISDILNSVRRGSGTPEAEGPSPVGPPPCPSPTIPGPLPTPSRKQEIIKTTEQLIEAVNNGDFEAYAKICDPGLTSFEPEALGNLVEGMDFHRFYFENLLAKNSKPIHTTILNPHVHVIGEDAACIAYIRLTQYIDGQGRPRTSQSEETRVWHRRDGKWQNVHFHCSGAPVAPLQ

Chain of Hepatocyte growth factor receptor (P08581 whole entry): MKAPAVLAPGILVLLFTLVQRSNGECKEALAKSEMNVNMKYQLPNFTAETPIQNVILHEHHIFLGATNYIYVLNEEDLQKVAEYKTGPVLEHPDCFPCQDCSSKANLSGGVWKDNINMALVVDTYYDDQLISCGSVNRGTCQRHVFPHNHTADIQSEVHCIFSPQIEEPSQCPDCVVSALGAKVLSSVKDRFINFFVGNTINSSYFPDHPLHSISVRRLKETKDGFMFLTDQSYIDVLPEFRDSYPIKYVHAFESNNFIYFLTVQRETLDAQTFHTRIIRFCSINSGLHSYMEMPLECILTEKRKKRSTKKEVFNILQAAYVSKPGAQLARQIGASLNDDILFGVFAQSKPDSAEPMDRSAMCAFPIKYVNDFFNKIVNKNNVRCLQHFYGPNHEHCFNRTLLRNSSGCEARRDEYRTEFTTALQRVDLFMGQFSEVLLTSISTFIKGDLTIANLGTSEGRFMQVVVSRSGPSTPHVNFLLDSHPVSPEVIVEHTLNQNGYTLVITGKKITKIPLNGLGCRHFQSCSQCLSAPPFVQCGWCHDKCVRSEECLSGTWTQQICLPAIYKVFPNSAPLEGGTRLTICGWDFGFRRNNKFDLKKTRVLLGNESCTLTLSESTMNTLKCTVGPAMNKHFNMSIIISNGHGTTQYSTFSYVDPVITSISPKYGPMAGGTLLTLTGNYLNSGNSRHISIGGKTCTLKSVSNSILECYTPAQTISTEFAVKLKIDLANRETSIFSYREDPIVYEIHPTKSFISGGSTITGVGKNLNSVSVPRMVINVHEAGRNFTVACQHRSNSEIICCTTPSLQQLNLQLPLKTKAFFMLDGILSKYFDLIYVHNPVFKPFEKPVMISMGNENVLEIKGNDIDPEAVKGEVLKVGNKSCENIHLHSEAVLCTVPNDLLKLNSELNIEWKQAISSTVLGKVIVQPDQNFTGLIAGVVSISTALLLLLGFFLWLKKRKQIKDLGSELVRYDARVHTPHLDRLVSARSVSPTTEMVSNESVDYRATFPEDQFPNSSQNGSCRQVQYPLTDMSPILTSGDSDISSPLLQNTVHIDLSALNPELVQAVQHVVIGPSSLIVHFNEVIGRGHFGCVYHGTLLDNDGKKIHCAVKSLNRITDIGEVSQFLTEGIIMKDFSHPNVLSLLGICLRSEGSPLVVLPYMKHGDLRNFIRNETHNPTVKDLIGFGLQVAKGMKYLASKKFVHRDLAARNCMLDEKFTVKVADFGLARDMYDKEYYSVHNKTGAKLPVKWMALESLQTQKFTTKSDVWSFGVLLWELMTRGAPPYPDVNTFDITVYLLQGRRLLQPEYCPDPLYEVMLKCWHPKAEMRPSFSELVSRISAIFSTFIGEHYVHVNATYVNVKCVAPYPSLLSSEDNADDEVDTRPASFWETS
Chain of Serine/threonine-protein kinase MRCK alpha (Homo sapiens) (Q5VT25 whole entry): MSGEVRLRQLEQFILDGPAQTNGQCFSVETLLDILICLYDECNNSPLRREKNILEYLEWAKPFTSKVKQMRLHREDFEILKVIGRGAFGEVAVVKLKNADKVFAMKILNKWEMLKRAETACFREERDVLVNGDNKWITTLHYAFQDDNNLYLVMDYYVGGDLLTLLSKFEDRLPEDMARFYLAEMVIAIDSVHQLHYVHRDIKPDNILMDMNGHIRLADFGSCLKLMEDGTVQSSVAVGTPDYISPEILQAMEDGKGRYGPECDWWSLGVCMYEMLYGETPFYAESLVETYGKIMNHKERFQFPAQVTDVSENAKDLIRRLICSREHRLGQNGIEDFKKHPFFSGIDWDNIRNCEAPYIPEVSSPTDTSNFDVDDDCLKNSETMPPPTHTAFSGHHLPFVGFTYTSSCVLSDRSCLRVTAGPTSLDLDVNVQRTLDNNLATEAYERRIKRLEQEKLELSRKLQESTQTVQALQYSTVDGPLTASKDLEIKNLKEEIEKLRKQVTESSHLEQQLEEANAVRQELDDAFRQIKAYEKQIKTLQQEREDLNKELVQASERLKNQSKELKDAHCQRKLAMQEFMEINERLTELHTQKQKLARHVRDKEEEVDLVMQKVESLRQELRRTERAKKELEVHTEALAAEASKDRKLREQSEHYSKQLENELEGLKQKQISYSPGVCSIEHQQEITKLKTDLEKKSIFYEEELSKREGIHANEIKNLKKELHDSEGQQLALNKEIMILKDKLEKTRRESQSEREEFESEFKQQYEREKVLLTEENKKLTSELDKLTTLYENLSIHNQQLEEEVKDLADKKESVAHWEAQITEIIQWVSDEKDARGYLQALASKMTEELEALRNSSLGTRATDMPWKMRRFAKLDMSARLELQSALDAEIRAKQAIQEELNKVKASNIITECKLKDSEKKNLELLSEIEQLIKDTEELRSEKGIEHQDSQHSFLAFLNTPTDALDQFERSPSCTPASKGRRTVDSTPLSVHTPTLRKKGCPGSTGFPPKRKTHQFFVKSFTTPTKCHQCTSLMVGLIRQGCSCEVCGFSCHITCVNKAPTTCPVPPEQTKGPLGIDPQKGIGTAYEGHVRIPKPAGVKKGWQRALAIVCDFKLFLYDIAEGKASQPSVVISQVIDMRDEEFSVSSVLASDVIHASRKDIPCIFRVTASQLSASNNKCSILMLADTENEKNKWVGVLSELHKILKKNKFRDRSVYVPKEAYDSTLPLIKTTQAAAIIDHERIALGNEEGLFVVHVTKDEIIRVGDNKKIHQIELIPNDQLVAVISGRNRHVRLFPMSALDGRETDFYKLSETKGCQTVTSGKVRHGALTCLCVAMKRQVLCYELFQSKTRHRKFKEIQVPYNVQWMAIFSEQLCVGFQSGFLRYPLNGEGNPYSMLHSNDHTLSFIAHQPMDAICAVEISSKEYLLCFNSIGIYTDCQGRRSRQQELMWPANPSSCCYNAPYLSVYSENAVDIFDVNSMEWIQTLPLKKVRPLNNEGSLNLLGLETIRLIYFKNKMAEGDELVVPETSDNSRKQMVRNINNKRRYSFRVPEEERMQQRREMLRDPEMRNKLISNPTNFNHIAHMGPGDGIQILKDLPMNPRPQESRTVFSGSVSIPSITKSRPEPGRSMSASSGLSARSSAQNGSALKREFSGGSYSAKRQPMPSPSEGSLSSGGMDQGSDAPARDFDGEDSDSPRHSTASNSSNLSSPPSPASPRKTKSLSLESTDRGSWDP

`CN(C)C/C=C/C(=O)Nc1ccc(C(=O)N2CCCC(Nc3ncc(Cl)c(-c4c[nH]c5ccccc45)n3)C2)cc1` (configuration not stated): the % of control in assay [1] stood at 95%. `CCC(=O)N1CCN(c2ccc(-n3c(=O)ccc4cnc5ccc(-c6cnc7ccccc7c6)cc5c43)cc2C(F)(F)F)CC1` came in with a % of control in assay [2] of 0.65%.

In assay [3], `CNCCN1CCC(c2cc(CN(C)C(=O)c3cccc(Oc4ccccc4)c3)ccn2)CC1` registered a % activity of more than 90%. The molecule `CC[C@@H]1[C@H](F)C(=O)N[C@@H]1COc1nccc2cc(C(N)=O)c(OC)cc12` [ZIMLOVISERTIB] displayed a % of inhibition in assay [4] of 3.9%.

In the case of `COc1cc(N(C)c2ccnc3ccc(C(F)(F)F)cc23)cc(OC)c1OC`, the % binding in assay [5] was 85%. Molecule `CCC(=O)N1CC[C@H](Nc2ncnc3c2CN(c2cnc(OC)c(C(F)(F)F)c2)CC3)C1` [LENIOLISIB] registered an IC50 in assay [6] of more than 10 µM. Turning to `O[C@H]1CC[C@H](Nc2ncc3nc(Nc4c(F)cc(F)cc4F)n([C@H]4CCOC4)c3n2)CC1`, the % of control in assay [7] turned out to be 100%.
